One may read the IC50 as the concentration that gives 50% inhibition. A higher IC50 goes with weaker potency in that assay. The term inhibition denotes how much of the control response was suppressed. A higher inhibition goes with a response far below the control.

For the first experiment, the system named is MAPK phosphorylation in PANC-1 pancreatic cancer cell line. The experiment in a line: MAPK cell-based phosphorylation assay (cell-direct ELISA, EGF stimulation). To be noted: Homo sapiens. Put shortly:
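Cell-direct ELISA measured phospho-MAPK, with fluorescence read at 595 nm from AmpliFlu Red. Before fixation, PANC-1 cells starved overnight received 6 hours of compound (30 μM single dose or serial dilutions, 0.3% DMSO, 37° C), followed by 1.5 ng/ml EGF for 15 min.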
Background: ELISA stands for enzyme-linked immunosorbent assay.
Compound `Oc1nc(-c2ccccn2)nc2sccc12` [drawing 1081] had an IC50 of 11 to 30 µM. The same measure, in the same setting: the figure for `Oc1nc(-c2ccccn2)nc2c(-c3ccccc3F)csc12` [drawing 1207] is 2 to 10 µM; for `CC(C)(C)c1ccc(-c2csc3c(O)nc(-c4ccccn4)nc23)cc1` [drawing 1191] it is 2 to 10 µM; for `O=C(c1csc2c(O)nc(-c3ccccn3)nc12)N1CCN(c2ccccc2)CC1` [drawing 1068] it is 2 to 10 µM.

Staying with this experiment, now noted: Homo sapiens, * = tested at 10 μM.
As to `CCN(CC)CCOc1nc(-c2nccn2C)nc2sc(-c3ccccc3)c(-c3ccccc3)c12` [drawing 1333], the inhibition at 10 µM lay in the range of 76 to 100%.

Compound `Nc1nc(-c2ccccn2)nc2c(-c3ccccc3)csc12` [drawing 1201] had an inhibition at 10 µM of 25 to 50%.

`COCCNc1nc(-c2cn(C)cn2)nc2sc(-c3ccccc3)c(-c3ccccc3)c12` [drawing 1343]: the inhibition at 10 µM lay within 76 to 100%. Same read-out and setting: the figure for `COCCNc1nc(-c2nccn2C)nc2sc(-c3ccncc3)c(-c3ccccc3)c12` [drawing 1342] is 0%; for `Cc1sc2c(N)nc(-c3ccccn3)nc2c1Br` [drawing 1230] it is 1 to 25%; for `Oc1nc(-c2ccccn2)nc2c(C3CCCCC3)csc12` [drawing 1272] it is 25 to 50%. The same measure, in the same setting: the figure for `N#Cc1ccc2c(c1)CCCC2C(=O)Nc1ccnc(-c2ccccn2)n1` (stereo not drawn) [drawing 1197] is 1 to 25%; for `O=C(CCc1cncnc1)Nc1nc(-c2ccccn2)nc2sccc12` [drawing 1228] it is 1 to 25%; for `OCC1(c2ccc(-c3csc4c(O)nc(-c5ccccn5)nc34)cc2)CC1` [drawing 1223] it is 51 to 75%.

With `Oc1nc(-c2ccccn2)nc2c(-c3ccccc3F)csc12` [drawing 1207], the inhibition at 10 µM was 76 to 100%. Same read-out and setting: the figure for `COCCNc1nc(-c2nccn2C)nc2sc(C3CCOCC3)c(-c3ccccc3)c12` [drawing 1350] is 51 to 75%; for `CC(C)Oc1ccc(-c2csc3c(O)nc(-c4nccn4C)nc23)cc1F` [drawing 1369] it is 25 to 50%. Still for that read-out and setting: the value for `CC(C)(C)c1ccc(-c2csc3c(O)nc(-c4ccccn4)nc23)cc1` [drawing 1191] was 76 to 100%; that for `Cc1sc2c(O)nc(-c3ccccn3)nc2c1-c1ccncc1` [drawing 1258] was 51 to 75%; that for `COc1cnc(CNC(=O)c2cc3nc(-c4ccccn4)nc(O)c3s2)[nH]c1=O` [drawing 1281] was 51 to 75%. In turn, `Oc1nc(-c2ccccn2)nc2cc(-c3ccccc3Cl)sc12` [drawing 1316] returned an inhibition at 10 µM of 1 to 25%.

`Nc1nc(-c2ccccn2)nc2scc(Br)c12` [drawing 1231] had an inhibition at 10 µM of 1 to 25%.

On to `Oc1nc(-c2ccccn2)nc2c(-c3cncc(C(F)F)c3)csc12` [drawing 1268], for which the inhibition at 10 µM was determined as 0%.

`Cn1cnc(-c2nc(O)c3c(-c4ccccc4)c(-c4ccncc4)sc3n2)c1` [drawing 1288] came in with an inhibition at 10 µM of 25 to 50%.

`O=C(c1csc2c(O)nc(-c3ccccn3)nc12)N1CCNC(c2ccc(Cl)cc2)C1` (stereo not drawn) [drawing 1285] returned an inhibition at 10 µM of 0%. Same read-out and setting: the value for `Cc1sc2c(O)nc(-c3nccn3C)nc2c1-c1ccc(OC(C)C)c(F)c1` [drawing 1370] was 25 to 50%. Same read-out and setting: the figure for `Cn1ccnc1-c1nc(NCCOC(F)(F)F)c2c(-c3ccccc3)c(-c3ccccc3)sc2n1` [drawing 1328] is 76 to 100%. The same measure, in the same setting: the figure for `Nc1nc(-c2ccccn2)nc2ccsc12` [drawing 1187] is 1 to 25%; for `Cn1ccnc1-c1nc(O)c2scc(-c3ccccc3Cl)c2n1` [drawing 1375] it is 25 to 50%; for `COc1ccc(F)cc1-c1csc2c(O)nc(-c3ccccn3)nc12` [drawing 1213] it is 25 to 50%.

For `Oc1nc(-c2ccccn2)nc2c(C3CC3)csc12` [drawing 1278], the inhibition at 10 µM lay in the range of 51 to 75%.

The compound `COC(=O)c1csc2nc(-c3ccccn3)nc(N)c12` [drawing 1232] displayed an inhibition at 10 µM of 25 to 50%.

With `COC(=O)c1c(C)sc2c(O)nc(-c3ccccn3)nc12` [drawing 1247], the inhibition at 10 µM fell in the range of 1 to 25%. As to `Oc1nc(-c2ccccn2)nc2c1c(-c1ccccc1)nn2-c1ccccn1` [drawing 1299], the inhibition at 10 µM stood at 0%. On to `CC(C)Oc1ccc(-c2c(-c3ccccc3)sc3c(O)nc(-c4nccn4C)nc23)cc1F` [drawing 1371], for which the inhibition at 10 µM was 25 to 50%.

Consider `Oc1nc(-c2ccccn2)nc2cc(-c3ccccc3)sc12` [drawing 1322], for which the inhibition at 10 µM is 25 to 50%.

In turn, `COc1cnc(CNC(=O)c2csc3c(O)nc(-c4ccccn4)nc23)[nH]c1=O` [drawing 1280] returned an inhibition at 10 µM of 0%.

The compound `Cc1ccc(-c2cc3nc(-c4ccccn4)nc(O)c3s2)cc1` [drawing 1315] registered an inhibition at 10 µM of 76 to 100%. Still for that read-out and setting: the value for `N#Cc1cccc(-c2csc3c(O)nc(-c4ccccn4)nc23)c1` [drawing 1264] was 0%.

The same experiment, now with this note: Homo sapiens, at 30 μM.
`Oc1nc(-c2ccccn2)nc2c(C3CCNCC3)csc12` [drawing 1116] came in with an inhibition at 30 µM of 1 to 25%. On the same count and under the same terms, the value for `COc1ccc(N2CCN(C(=O)c3csc4c(O)nc(-c5ccccn5)nc34)CC2)cc1O` [drawing 1164] was 1 to 25%; that for `O=C(c1csc2c(O)nc(-c3ccccn3)nc12)N1CCC(c2cccnc2)CC1` [drawing 1070] was 1 to 25%; that for `Nc1nc(O)c2scc(-c3ccccc3Cl)c2n1` [drawing 1073] was 1 to 25%. Still for that read-out and setting: the value for `NC(=O)C1CCN(c2nc(-c3ccccn3)nc3scc(-c4ccccc4)c23)CC1` [drawing 1111] was 1 to 25%; that for `O=C(CC(c1ccccc1)c1ccccc1)N1CCCc2c(O)nc(-c3ccccn3)nc21` [drawing 1061] was 1 to 25%; that for `O=C(c1csc2c(O)nc(-c3ccccn3)nc12)N1CCNC(Cc2ccccc2)C1` (stereo not drawn) [drawing 1154] was 1 to 25%.

As to `O=C(c1csc2c(O)nc(-c3ccccn3)nc12)N1CCN(Cc2ccc(O)c(Cl)c2)CC1` [drawing 1147], the inhibition at 30 µM is 25 to 50%.

For `O=C(CC1C=CCC1)Nc1nnc(-c2ccccn2)[nH]1` (stereo not drawn) [drawing 1005], the inhibition at 30 µM was in the range of 1 to 25%. The same measure, in the same setting: the figure for `O=C(Nc1nnc(-c2ccccn2)[nH]1)c1ccn(-c2cccc(Cl)c2)n1` [drawing 1028] is 25 to 50%; for `CC(C)CNC(=O)CN1CCN(c2nc(-c3ccccn3)nc3scc(-c4ccccc4)c23)CC1` [drawing 1099] it is 1 to 25%; for `N#Cc1ccc(CC(=O)Cc2ccnc(-c3ccccn3)n2)cc1` it is 1 to 25%. The same measure, in the same setting: the figure for `COc1cc(N2CCN(C(=O)c3csc4c(O)nc(-c5ccccn5)nc34)CC2)cc(OC)c1OC` [drawing 1141] is 1 to 25%; for `COC(=O)c1ccc(C(=O)NCC2(c3ccccc3OC)CCCC2)nc1` [drawing 1048] it is 1 to 25%; for `O=C(Nc1nnc(-c2ccccn2)[nH]1)C1Cc2cc(Cl)ccc2O1` (stereo not drawn) [drawing 1025] it is 1 to 25%. On the same count and under the same terms, the value for `N#Cc1csc2nc(-c3ccccn3)nc(N3CCOCC3)c12` [drawing 1178] was 1 to 25%. `Oc1nc(-c2ccccn2)nc2sccc12` [drawing 1081] returned an inhibition at 30 µM of 1 to 25%. The same measure, in the same setting: the value for `NC(=O)C1CCCN(c2nc(-c3ccccn3)nc3scc(-c4ccccc4)c23)C1` (stereo not drawn) [drawing 1107] was 1 to 25%; that for `Cc1ccc(CC(=O)Nc2nnc(-c3ccccn3)[nH]2)s1` [drawing 1018] was 1 to 25%. Same read-out and setting: the figure for `Clc1csc2nc(-c3ccccn3)nc(N3CCOCC3)c12` [drawing 1113] is 1 to 25%; for `COc1ccc2c(ccn2CC(=O)Nc2nnc(-c3ccccn3)[nH]2)c1` [drawing 1000] it is 1 to 25%; for `CC1CCN(C(=O)c2csc3c(O)nc(-c4ccccn4)nc23)CC1` [drawing 1065] it is 1 to 25%.

For `O=C(c1csc2c(O)nc(-c3ccccn3)nc12)N1CCN(c2ccccc2Cl)CC1` [drawing 1119], the inhibition at 30 µM was in the range of 1 to 25%. The same measure, in the same setting: the figure for `Cc1sc2nc(-c3ccccn3)nc(NCCCO)c2c1-c1ccccc1` [drawing 1043] is 1 to 25%; for `O=C(c1csc2c(O)nc(-c3ccccn3)nc12)N1CCN(Cc2ccc(O)cc2)CC1` [drawing 1146] it is 25 to 50%; for `COC(=O)c1cc(NCC2NC(CC(C)C)=NO2)ccc1Cl` (stereo not drawn) it is 1 to 25%.

As for `O=C(c1csc2c(O)nc(-c3ccccn3)nc12)N1CCN(c2cccc(Cl)c2)CC1` [drawing 1120], the inhibition at 30 µM is 25 to 50%. The same measure, in the same setting: the value for `O=C(Nc1nc(-c2ccccn2)cs1)c1ccc(F)cc1` [drawing 1035] was 1 to 25%. Same read-out and setting: the value for `O=C1CN(c2nc(-c3ccccn3)nc3scc(-c4ccccc4)c23)CCN1` [drawing 1082] was 1 to 25%; that for `COc1cc(OC)cc(N2CCN(C(=O)c3csc4c(O)nc(-c5ccccn5)nc34)CC2)c1` [drawing 1140] was 1 to 25%. Still for that read-out and setting: the value for `O=C(Cn1cnc2ccccc2c1=O)Nc1nc(-c2ccccn2)cs1` [drawing 1030] was 1 to 25%; that for `O=C(c1csc2c(O)nc(-c3ccccn3)nc12)N1CCN(c2ccccc2)CC1` [drawing 1068] was 76 to 100%; that for `CCN(CC)C(=O)CN1CCN(c2nc(-c3ccccn3)nc3scc(-c4ccccc4)c23)CC1` [drawing 1098] was 25 to 50%.

As for `COc1ccccc1N1CCN(C(=O)c2csc3c(O)nc(-c4ccccn4)nc23)CC1` [drawing 1117], the inhibition at 30 µM lay in the range of 1 to 25%. Compound `CC(OCc1ccccc1)C(=O)Nc1nnc(-c2ccccn2)[nH]1` (stereo not drawn) [drawing 1016] showed an inhibition at 30 µM of 1 to 25%. On the same count and under the same terms, the figure for `O=C(CNc1nc(-c2ccccn2)nc2scc(-c3ccccc3)c12)NC1CC1` [drawing 1097] is 25 to 50%; for `O=C(Cc1cccs1)Nc1nnc(-c2ccccn2)[nH]1` [drawing 1007] it is 25 to 50%; for `O=C(c1csc2c(O)nc(-c3ccccn3)nc12)N1CCN(c2ccc(F)cc2)CC1` [drawing 1138] it is 1 to 25%.

`O=C(c1csc2c(O)nc(-c3ccccn3)nc12)N1CCN(c2ccccc2F)CC1` [drawing 1121] came in with an inhibition at 30 µM of 1 to 25%. Same read-out and setting: the figure for `O=C(Nc1nnc(-c2ccccn2)[nH]1)C1CC(=O)N(Cc2cccc(C(F)(F)F)c2)C1` (stereo not drawn) [drawing 1024] is 25 to 50%.

The values are drawn from patent publication US10940139B2, “Compounds that interact with the Ras superfamily for the treatment of cancers, inflammatory diseases, rasopathies, and fibrotic disease” (Shy Therapeutics LLC, priority 2017, dated 2021).
